Test systems include A549 NSCLC; NCI-H226 lung; A498 renal; HL-60(TB) leukemia; PC-3 prostate; HS 578T breast; OVCAR-5 ovarian; HCT-116 colon; KM12 colon; SNB-75 CNS.
What all share (assay): NCI-60 cell line screen, 48 h

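The compound was tested at five concentrations on cells cultured in 96-well plates, with a 48-hour exposure period. TGI denotes the concentration required for complete inhibition of growth.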 A value given as a limit tells only on which side of the number the result lay.

Here are results for 15 compounds from PubChem BioAssay (NCI).

Consider `COc1ccc(N2C(=O)C3c4[nH]c5ccc(Br)cc5c4C4CCC(C(C)(C)C)CC4C3C2=O)cc1` (stereo not drawn), for which the TGI in the assay with A549 NSCLC, with NCI-H226 lung, in the assay on A498 renal, in the assay with HL-60(TB) leukemia, with PC-3 prostate and with HS 578T breast was above 100 µM in each case. The TGI with OVCAR-5 ovarian, with HCT-116 colon and in the assay with KM12 colon was above 100 µM each time.
As to `NC(=O)Cc1nc2c(N)ncnc2n1C1OC(CO)C(O)C1O` (stereo not drawn), the TGI in the assay on A549 NSCLC, with NCI-H226 lung, in the assay with A498 renal, in the assay with HL-60(TB) leukemia, with PC-3 prostate and in the assay on HS 578T breast was above 100 µM in each case. For the same compound, the TGI in the assay with HCT-116 colon and with KM12 colon was above 100 µM throughout.
As to `CCOC(=O)C1c2[nH]c3ccccc3c2CCN1C(=O)c1ccc(OC)o1` (stereo not drawn), the TGI with NCI-H226 lung, in the assay with SNB-75 CNS, in the assay with A498 renal, with HL-60(TB) leukemia, in the assay on PC-3 prostate and in the assay with HS 578T breast was above 10 µM throughout. The TGI in the assay on OVCAR-5 ovarian and in the assay with KM12 colon was above 10 µM throughout.
Consider `OC(c1ccc(C(F)(F)F)cc1)C(F)(F)c1nc2ccccc2o1` (stereo not drawn), for which the TGI in the assay on NCI-H226 lung, in the assay on SNB-75 CNS, in the assay on HL-60(TB) leukemia, in the assay on PC-3 prostate, in the assay on HS 578T breast and in the assay with HCT-116 colon was above 100 µM throughout. In the assay on KM12 colon, this compound gave a TGI above 100 µM.
As for `CCOC(=O)C1=CCOc2cc(N(C)C)ccc21`, the TGI in the assay with A549 NSCLC, in the assay on NCI-H226 lung, in the assay on SNB-75 CNS, in the assay with A498 renal, with HL-60(TB) leukemia and in the assay with PC-3 prostate was above 100 µM throughout. Also, the TGI in the assay on HS 578T breast, in the assay with HCT-116 colon and in the assay with KM12 colon was above 100 µM throughout.
In the case of `COC(=O)C1(C#N)C(C)(C)N=C(c2ccccc2)C12CCCCC2` (stereo not drawn), the TGI with A549 NSCLC, in the assay with A498 renal, with HL-60(TB) leukemia, with PC-3 prostate, with HS 578T breast and with OVCAR-5 ovarian was above 100 µM in each case. Besides, the TGI in the assay on HCT-116 colon and in the assay on KM12 colon was above 100 µM each time.
With `CCCCCCCCCCCCCCCCCCNC(=S)/N=C\C1=C(O)c2ccccc2C1=O`, the TGI in the assay on A549 NSCLC is 28 µM; in the assay with NCI-H226 lung, 25.6 µM; in the assay on A498 renal, 40 µM; with HL-60(TB) leukemia it was above 100 µM; in the assay on PC-3 prostate, 15.9 µM; with HS 578T breast, 35 µM. Moreover, the TGI is 26.9 µM in the assay on OVCAR-5 ovarian, 15.3 µM in the assay on HCT-116 colon and 22.7 µM in the assay on KM12 colon.
Turning to `Cc1cc(Cc2cc(C)c(NC(=O)C(=O)C3CCC4=C(SC5C=CC=CC5N4)C3=O)c(C(C)C)c2)cc(C(C)C)c1NC(=O)C(=O)C1CCC2=C(SC3C=CC=CC3N2)C1=O` (stereo not drawn), the TGI with A549 NSCLC is above 100 µM; with NCI-H226 lung, above 100 µM; in the assay on SNB-75 CNS, above 100 µM; with A498 renal it was above 100 µM; with HL-60(TB) leukemia it was above 100 µM; in the assay on PC-3 prostate, 90.9 µM. The TGI with OVCAR-5 ovarian, in the assay with HCT-116 colon and in the assay with KM12 colon was above 100 µM in each case.
In the case of `O=c1c2cc3c(=O)n4c(cc(-c5ccccc5)c5cc(Cl)ccc54)nc3cc2nc2cc(-c3ccccc3)c3cc(Cl)ccc3n12`, the TGI in the assay with A549 NSCLC, in the assay on NCI-H226 lung, in the assay with SNB-75 CNS, with A498 renal, with PC-3 prostate and in the assay with HS 578T breast was above 100 µM each time. For the same compound, the TGI in the assay with OVCAR-5 ovarian, with HCT-116 colon and in the assay with KM12 colon was above 100 µM in each case.
On to `C=CCN(C(=O)OC(C)(C)C)[C@H](C)C(=O)N[C@@H](C)C(=O)OC`, for which the TGI in the assay with A549 NSCLC, in the assay with NCI-H226 lung, in the assay with A498 renal, with HL-60(TB) leukemia, in the assay on PC-3 prostate and with HS 578T breast was above 100 µM each time. In addition, the TGI in the assay with OVCAR-5 ovarian, in the assay on HCT-116 colon and with KM12 colon was above 100 µM in each case.
For `S=C1CCSc2c(ccc3ccccc23)N1`, the TGI in the assay on A549 NSCLC, in the assay with NCI-H226 lung, in the assay on SNB-75 CNS, in the assay with HL-60(TB) leukemia, in the assay with PC-3 prostate and in the assay with HS 578T breast was above 100 µM throughout. For the same compound, the TGI in the assay with OVCAR-5 ovarian, in the assay on HCT-116 colon and with KM12 colon was above 100 µM each time.
Turning to `C/C(CC(O)(/C=N/O)c1ccccc1)=N/O` (stereo not drawn), the TGI in the assay with A549 NSCLC, in the assay on NCI-H226 lung, in the assay with PC-3 prostate, in the assay with HS 578T breast, in the assay on OVCAR-5 ovarian and in the assay with HCT-116 colon was above 100 µM throughout. The compound also showed a TGI with KM12 colon above 100 µM.
On to `O=c1[nH]nc(Cc2c[nH]c3ccccc23)o1`, for which the TGI with A549 NSCLC, in the assay with NCI-H226 lung, in the assay on A498 renal, in the assay on HL-60(TB) leukemia, in the assay on PC-3 prostate and in the assay with HS 578T breast was above 100 µM throughout. Also, the TGI with OVCAR-5 ovarian, with HCT-116 colon and with KM12 colon was above 100 µM each time.
`NC(=O)NCCCC(NC(=O)OCCCCCCn1ccc(=O)[nH]c1=O)C(=O)O` (stereo not drawn): the TGI in the assay with A549 NSCLC, in the assay on NCI-H226 lung, in the assay with SNB-75 CNS, in the assay on HL-60(TB) leukemia, in the assay with PC-3 prostate and with HS 578T breast was above 100 µM in each case. Further, the TGI with OVCAR-5 ovarian, in the assay with HCT-116 colon and in the assay with KM12 colon was above 100 µM throughout.
As to `COc1ccc(C2SCC(=O)N2NC(=O)c2ccc(NC(C)=O)cc2)c(OC)c1` (stereo not drawn), the TGI in the assay with A549 NSCLC, in the assay on NCI-H226 lung, in the assay on SNB-75 CNS, in the assay on A498 renal, in the assay with HL-60(TB) leukemia and in the assay on HS 578T breast was above 100 µM in each case. The TGI in the assay on OVCAR-5 ovarian, in the assay on HCT-116 colon and in the assay with KM12 colon was above 100 µM each time.
